Experimental data as given in PMC5951806, “Rapid labelling and covalent inhibition of intracellular native proteins using ligand-directed N-acyl-N-alkyl sulfonamide” (Nature Communications, 2018).

How the values were obtained:
Test in all cases: TMT LC-MSMS of 11-labelled proteins
Type in all cases: cell-based
[1] = biological target: Sodium/potassium-transporting ATPase subunit alpha-1 (ATP1A1) (Homo sapiens, UniProt P05023)
peroxiredoxin-1 (PRDX1) = biological target: T1, peroxiredoxin-1 (PRDX1) (Homo sapiens, UniProt Q06830)
T1 sequence (Q06830 1-199): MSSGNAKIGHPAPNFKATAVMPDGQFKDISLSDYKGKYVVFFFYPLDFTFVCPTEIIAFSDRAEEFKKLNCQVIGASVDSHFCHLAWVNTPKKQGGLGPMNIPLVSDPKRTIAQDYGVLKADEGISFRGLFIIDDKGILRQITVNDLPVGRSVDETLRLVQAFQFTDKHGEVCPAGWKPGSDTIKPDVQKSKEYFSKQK

[2] = biological target: tubulin beta chain (TUBB) (Homo sapiens, UniProt P07437)
Sequence of tubulin beta chain (TUBB) (P07437 whole entry): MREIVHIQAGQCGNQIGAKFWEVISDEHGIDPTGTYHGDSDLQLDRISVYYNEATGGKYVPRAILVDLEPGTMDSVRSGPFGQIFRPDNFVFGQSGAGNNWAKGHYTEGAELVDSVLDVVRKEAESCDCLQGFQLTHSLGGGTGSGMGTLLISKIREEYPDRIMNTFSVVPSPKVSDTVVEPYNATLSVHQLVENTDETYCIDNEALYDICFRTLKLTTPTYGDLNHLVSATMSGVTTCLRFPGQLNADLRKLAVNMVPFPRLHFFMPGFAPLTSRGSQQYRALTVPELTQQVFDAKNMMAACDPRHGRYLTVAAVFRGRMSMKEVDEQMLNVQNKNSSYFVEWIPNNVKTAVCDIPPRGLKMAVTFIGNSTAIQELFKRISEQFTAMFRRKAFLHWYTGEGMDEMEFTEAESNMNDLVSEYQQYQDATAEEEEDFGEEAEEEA
Sequence of tubulin beta chain (TUBB) (P68363 whole entry partner): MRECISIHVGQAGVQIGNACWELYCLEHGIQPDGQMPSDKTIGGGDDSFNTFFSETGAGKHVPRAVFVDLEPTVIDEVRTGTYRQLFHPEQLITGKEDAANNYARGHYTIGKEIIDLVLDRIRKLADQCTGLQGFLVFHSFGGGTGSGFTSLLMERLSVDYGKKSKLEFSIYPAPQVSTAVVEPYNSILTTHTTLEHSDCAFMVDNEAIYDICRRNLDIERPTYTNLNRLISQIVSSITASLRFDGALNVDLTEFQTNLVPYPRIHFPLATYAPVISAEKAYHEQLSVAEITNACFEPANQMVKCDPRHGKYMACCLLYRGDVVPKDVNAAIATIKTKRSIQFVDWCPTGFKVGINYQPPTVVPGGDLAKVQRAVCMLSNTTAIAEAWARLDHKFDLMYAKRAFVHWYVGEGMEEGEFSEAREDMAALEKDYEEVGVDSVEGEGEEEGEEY

[3] = sheet Exp1, SKBR3 cells, 11 0.5 µM 3 h vs DMSO
[4] = sheet Exp1, SKBR3 cells, 11 0.5 µM 3 h vs with PU-H71 10 µM
[5] = sheet Merged, SKBR3 cells, 11 0.5 µM 3 h vs DMSO
[6] = sheet Merged, SKBR3 cells, 11 0.5 µM 3 h vs with PU-H71 10 µM

- Abundance Ratio: (11) / (11 with PU-H71) ([1]; Exp3, ATP1A1): 0.969
- Abundance Ratio: (11) / (DMSO) ([1]; Exp3, ATP1A1): 3.731
- Abundances (Grouped): 11 ([1]; Exp3, ATP1A1): 59.7
- Abundances (Grouped): 11 with PU-H71 ([1]; Exp3, ATP1A1): 61.6
- Abundance Ratio: (11) / (DMSO) [1, 3]: 1.112
- Abundance Ratio: (11) / (11 with PU-H71) [1, 4]: 0.455
- Abundance Ratio: (11) / (11 with PU-H71) ([1]; sheet Exp2, ATP1A1): 0.735
- Abundance Ratio: (11) / (DMSO) ([1]; sheet Exp2, ATP1A1): 2.007
- Abundances (Grouped): 11 ([1]; sheet Exp2, ATP1A1): 162
- Abundances (Grouped): 11 with PU-H71 ([1]; sheet Exp2, ATP1A1): 220.4
- Abundance Ratio: (11) / (DMSO) [1, 5]: 1.112
- Abundance Ratio: (11) / (11 with PU-H71) [1, 6]: 0.455
- Abundance Ratio: (11) / (11 with PU-H71) (peroxiredoxin-1 (PRDX1); Exp3, PRDX1): 0.822
- Abundance Ratio: (11) / (DMSO) (peroxiredoxin-1 (PRDX1); Exp3, PRDX1): 2.683
- Abundances (Grouped): 11 (peroxiredoxin-1 (PRDX1); Exp3, PRDX1): 295.4
- Abundances (Grouped): 11 with PU-H71 (peroxiredoxin-1 (PRDX1); Exp3, PRDX1): 359.3
- Abundance Ratio: (11) / (DMSO) (peroxiredoxin-1 (PRDX1); [3]): 2.358
- Abundance Ratio: (11) / (11 with PU-H71) (peroxiredoxin-1 (PRDX1); [4]): 0.804
- Abundance Ratio: (11) / (11 with PU-H71) (peroxiredoxin-1 (PRDX1); sheet Exp2, PRDX1): 0.861
- Abundance Ratio: (11) / (DMSO) (peroxiredoxin-1 (PRDX1); sheet Exp2, PRDX1): 2.62
- Abundances (Grouped): 11 (peroxiredoxin-1 (PRDX1); sheet Exp2, PRDX1): 93.8
- Abundances (Grouped): 11 with PU-H71 (peroxiredoxin-1 (PRDX1); sheet Exp2, PRDX1): 109
- Abundance Ratio: (11) / (DMSO) (peroxiredoxin-1 (PRDX1); [5]): 2.219
- Abundance Ratio: (11) / (11 with PU-H71) (peroxiredoxin-1 (PRDX1); [6]): 0.847
- Abundance Ratio: (11) / (11 with PU-H71) ([2]; Exp3, TUBB): 0.804
- Abundance Ratio: (11) / (DMSO) ([2]; Exp3, TUBB): 4.633
- Abundances (Grouped): 11 ([2]; Exp3, TUBB): 127.4
- Abundances (Grouped): 11 with PU-H71 ([2]; Exp3, TUBB): 158.4
- Abundance Ratio: (11) / (DMSO) [2, 3]: 3.833
- Abundance Ratio: (11) / (11 with PU-H71) [2, 4]: 0.775
- Abundance Ratio: (11) / (11 with PU-H71) ([2]; sheet Exp2, TUBB): 0.757
- Abundance Ratio: (11) / (DMSO) ([2]; sheet Exp2, TUBB): 3.139
- Abundances (Grouped): 11 ([2]; sheet Exp2, TUBB): 115.5
- Abundances (Grouped): 11 with PU-H71 ([2]; sheet Exp2, TUBB): 152.6
- Abundance Ratio: (11) / (DMSO) [2, 5]: 3.599
- Abundance Ratio: (11) / (11 with PU-H71) [2, 6]: 0.804
SMILES: CC(=O)Oc1ccc2c(c1)Oc1cc(OC(C)=O)ccc1C21OC(=O)c2cc(C(=O)NCCOCCOCCNC(=O)CCCC(=O)N(CC#N)S(=O)(=O)c3ccc(C(=O)NCCCn4c(Sc5cc6c(cc5I)OCO6)nc5c(N)ncnc54)cc3)ccc21 [compound 11]
